Measured values published in patent US9989531B2, “Composition comprising a cell sample from a subject with scoliosis and a reagent for detecting PTPμ or PIPK1y” (Chu Sainte-Justine, priority 2013, dated 2018).

Assays:
[1] = tested on: α2 adrenergic receptor (α2-ADR); assay: GiPCR signaling by cellular dielectric spectroscopy (CDS), oxymethazolin stimulation of osteoblasts; assay type: cell-based, mouse; conditions: osteoblasts from bipedal WT and PTPμ−/− mice, different concentrations (FIG. 3)
Description: (§1) The signaling capacity of G proteins was assessed from osteoblast cultures using cellular dielectric spectroscopy (CDS) performed on a CellKey™ apparatus (MDS Sciex, San Francisco, Calif.), as described in Akoume, et al., 2010 and WO 2010/040234, 2010 to Moreau et al. To assess GiPCR cell signaling, specific agonists that bind to GiPCR and regulate Gi proteins were used: Apelin-17, Oxymethazolin and Somatostatin (Som) (Tocris Bioscience, Canada).
To examine the impact of PTPμ deficiency on this defect, osteoblasts from bipedal WT and PTPμ^−/− mice were screened for their response to three GiPCR selective agonists identified in (FIG. 2). In agreement with previous results (Akoume et al Spine 2010), all three compounds evoked typical CDS response profiles of GiPCR in WT osteoblasts. Consistent with Gi coupling for their cognate receptors in these cells, response to each of the three tested compounds was blocked by pre-treatment with PTX (FIGS. 2 A-F). Similar results were obtained with PTPμ^−/− osteoblasts (FIGS. 2 G-L). […] However, in each case, osteoblasts from PTPμ^−/− mice were less responsive than those from WT mice, but EC50 values were similar in both groups (FIGS. 3 A-C).

[2] = target: T1, Apelin receptor (APJR) (Mus musculus, UniProt Q9WV08); assay: GiPCR signaling by cellular dielectric spectroscopy (CDS), apelin-17 stimulation of osteoblasts; assay type: cell-based; conditions: osteoblasts from bipedal WT and PTPμ−/− mice, different concentrations (FIG. 3)
T1 construct: The signaling capacity of G proteins was assessed from osteoblast cultures using cellular dielectric spectroscopy (CDS); endogenous in cells; host or cells: primary spine osteoblasts from bipedal C57Bl/6j WT and PTPμ-/- mice
T1 sequence (Q9WV08 1-377): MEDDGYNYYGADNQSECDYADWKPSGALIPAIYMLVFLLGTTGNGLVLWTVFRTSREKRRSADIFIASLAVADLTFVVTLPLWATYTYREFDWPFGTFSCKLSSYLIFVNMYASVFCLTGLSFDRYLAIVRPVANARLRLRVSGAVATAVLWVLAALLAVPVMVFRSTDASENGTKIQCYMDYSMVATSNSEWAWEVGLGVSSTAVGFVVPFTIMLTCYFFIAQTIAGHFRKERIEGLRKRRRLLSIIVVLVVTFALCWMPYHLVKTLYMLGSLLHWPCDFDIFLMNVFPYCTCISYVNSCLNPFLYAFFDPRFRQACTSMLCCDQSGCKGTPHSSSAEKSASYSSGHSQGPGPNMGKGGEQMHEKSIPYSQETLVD

[3] = target: T2, OPN (Mus musculus, UniProt P10923); assay: OPN knockdown by siRNA in osteoblasts, response to GiPCR stimulation (CDS); assay type: cell-based; conditions: WT and PTPμ−/− osteoblasts (FIGS. 3 F-H)
T2 construct: endogenous in cells; host or cells: primary spine osteoblasts from bipedal C57Bl/6j WT and PTPμ-/- mice, transfected with OPN siRNA
T2 sequence (P10923 17-294): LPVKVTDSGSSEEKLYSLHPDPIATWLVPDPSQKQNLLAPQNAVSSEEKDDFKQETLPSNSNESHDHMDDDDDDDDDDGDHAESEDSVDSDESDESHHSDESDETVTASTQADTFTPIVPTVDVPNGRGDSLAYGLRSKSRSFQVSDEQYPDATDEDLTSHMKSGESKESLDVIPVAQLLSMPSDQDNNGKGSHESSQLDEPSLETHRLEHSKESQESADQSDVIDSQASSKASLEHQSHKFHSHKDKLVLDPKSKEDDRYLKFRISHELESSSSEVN
Description: as §1
(§2) Primary osteoblast cell cultures from C57BI/6j WT and C57B/6j PTPμ^−/− were cultured (as described above). Lipofectamine™ RNAiMAX (Invitrogen) was applied for siRNA transfection according to the manufacturer's instructions. The sequence of RNA oligo used for the knockdown of OPN is ([…] (SEQ ID NO: 25)). The cells were harvested for RNA extraction after 48 hrs. The same procedure was followed for phosphatidylinositol-phosphate kinase type I gamma (PIPK1γ). The sequence of RNA oligo used for the knockdown of PIPK1γ is ([…] (SEQ ID NO: 26)).
To relate these findings to the OPN action, the small interference RNA (siRNA) approach was used to knockdown the expression of OPN in WT and PTPμ^−/− osteoblasts.

[4] = tested on: G αi proteins; assay: Pertussis toxin pre-treatment of osteoblasts before GiPCR agonist stimulation (CDS); assay type: cell-based, mouse; conditions: osteoblasts from bipedal WT and PTPμ−/− mice; agonists oxymethazolin, somatostatin, apelin-17 (FIG. 2)
Description: Furthermore, Pertussis toxin (PTX) (Sigma Aldrich, Canada) was used to determine if the effect of the agonists was related to G αi proteins.

[5] = tested on: GiPCR signaling; assay: Exogenous recombinant OPN treatment of osteoblasts prior to GiPCR stimulation (CDS); assay type: cell-based, mouse; conditions: WT and PTPμ−/− osteoblasts, varying concentrations of rOPN (FIGS. 4 A-C)
Description: as §1
WT and PTPμ^−/− osteoblasts were treated with varying concentrations of exogenous recombinant OPN (rOPN) prior to GiPCR stimulation with agonists identified in FIGS. 4 A-C.

[6] = target: T3, PIPK1γ (Mus musculus, UniProt O70161); assay: PIPK1γ knockdown by siRNA in osteoblasts, response to somatostatin stimulation (CDS); assay type: cell-based; conditions: varying concentrations of somatostatin, vs scrb (FIG. 6H)
T3 construct: endogenous in cells; host or cells: primary spine osteoblasts from bipedal C57Bl/6j WT and PTPμ-/- mice
T3 sequence (O70161 whole entry): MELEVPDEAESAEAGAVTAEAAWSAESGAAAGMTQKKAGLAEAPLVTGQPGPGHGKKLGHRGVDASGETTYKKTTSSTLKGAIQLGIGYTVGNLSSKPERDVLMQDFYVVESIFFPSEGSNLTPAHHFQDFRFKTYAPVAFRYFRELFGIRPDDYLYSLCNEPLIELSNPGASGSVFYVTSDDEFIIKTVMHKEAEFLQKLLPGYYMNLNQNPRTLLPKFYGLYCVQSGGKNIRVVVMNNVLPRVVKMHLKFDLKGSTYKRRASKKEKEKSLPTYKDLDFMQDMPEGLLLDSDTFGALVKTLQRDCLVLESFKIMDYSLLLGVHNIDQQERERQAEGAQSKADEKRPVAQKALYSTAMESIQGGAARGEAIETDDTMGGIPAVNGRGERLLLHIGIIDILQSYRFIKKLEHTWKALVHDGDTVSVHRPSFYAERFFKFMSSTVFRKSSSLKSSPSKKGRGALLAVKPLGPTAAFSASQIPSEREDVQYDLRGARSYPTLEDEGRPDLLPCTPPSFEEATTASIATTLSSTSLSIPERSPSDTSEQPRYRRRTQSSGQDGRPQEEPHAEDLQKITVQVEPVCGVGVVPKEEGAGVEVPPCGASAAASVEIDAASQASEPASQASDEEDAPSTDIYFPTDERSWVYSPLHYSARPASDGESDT
Description: as §1, §2
To further assess the implication of PIPK1γ in the mechanism of action behind PTPμ deficiency, a SiRNA approach was used to knockdown the expression of PIPK1γ in WT and PTPμ^−/− osteoblasts prior to initiating GiPCR signaling with somatostatin stimulation. Efficiency of siRNA in WT and PTPμ^−/− osteoblasts was confirmed by qPCR and Western blot analysis (FIGS. 6 B and C). […]

Cc1cc(C(C)(C)C)c(O)c(C)c1CC1=NCCN1 [oxymethazoin, Oxymethazolin]
CDS response to agonist [1]: increased response in a concentration-dependent manner

Apelin-17
CDS response to agonist [2]: increased response in a concentration-dependent manner

OPN siRNA: RNA oligo used for the knockdown of OPN: CCACAGCCACAAGCAGUCCAGAUUA (SEQ ID NO: 25) (CCACAGCCACAAGCAGUCCAGAUUA; listed as RNA, chemistry not given here)
response to GiPCR stimulation after deletion of OPN [3]: enhanced response to GiPCR stimulation

Pertussis toxin [PTX]
effect of pre-treatment on Gi coupling of agonists to their cognate receptors [4]: blocked the Gi coupling

rOPN: exogenous recombinant OPN (osteopontin)
integrated response to GiPCR stimulation [5]: decrease in the integrated response in a concentration-dependent manner

siPIPK1: RNA oligo used for the knockdown of PIPK1γ: CCUCCACAUCGGGAUUGAUAUU (SEQ ID NO: 26) (CCUCCACAUCGGGAUUGAUAUU; listed as RNA, chemistry not given here)
response to somatostatin stimulation after depletion of PIPK1γ ([6]; WT osteoblasts): same response
response to somatostatin stimulation after depletion of PIPK1γ ([6]; osteoblasts from PTPμ deficiency mice): enhanced response to somatostatin stimulation
